Measurements taken from patent publication US12371421B2, “Solid forms of a PARP7 inhibitor” (Ribon Therapeutics, Inc., priority 2019, dated 2025).

What was measured:
Assay in all cases: Cancer cell growth inhibition (CellTiter-Glo)
Type in all cases: cell-based
MDA-MB-468 = settings: Homo sapiens; MDA-MB-468, breast adenocarcinoma; 144 hours
Method: (§1) Cells were plated into 384-well plates at a pre-specified density in fetal bovine serum-containing media. Cells were treated with compound or vehicle (DMSO) 24 hrs later, and a day zero plate was collected for analysis. Test compound plates were incubated continuously for 144 hours before cells and cell growth was assessed using a luminescent cell viability assay (CellTiter-Glo, Promega). The GI50 was determined by correcting for the cell count at time zero (time of treatment) and plotting data as percent growth relative to vehicle-treated cells.

Panc 03.27 = settings: Homo sapiens, PANC-03-27; Panc 03.27, pancreatic adenocarcinoma; 144 hours
Method: as §1

SK-MEL-2 = settings: Homo sapiens; SK-MEL-2, malignant melanoma; 144 hours
Method: as §1

SCC-25 = settings: Homo sapiens; SCC-25, tongue squamous cell carcinoma; 144 hours
Method: as §1

EBC-1 = settings: Homo sapiens; EBC-1, squamous cell lung carcinoma; 144 hours
Method: as §1

TE-11 = settings: Homo sapiens; TE-11, esophageal squamous cell carcinoma; 144 hours
Method: as §1

GCT = settings: Homo sapiens, undifferentiated pleiomorphic sarcoma, 144 hours
Method: as §1

NCI-H2291 = settings: Homo sapiens; NCI-H2291, lung adenocarcinoma; 144 hours
Method: as §1

ACC-MESO-1 = settings: ACC-MESO-1, mesothelioma; 144 hours
Method: as §1

TYK-nu = settings: high grade ovarian serious adenocarcinoma, 144 hours
Method: as §1

NCI-H1944 = settings: Homo sapiens; NCI-H1944, lung adenocarcinoma; 144 hours
Method: as §1

NCI-H647 = settings: Homo sapiens; NCI-H647, lung adenosquamous carcinoma; 144 hours
Method: as §1

NCI-H2347 = settings: Homo sapiens; NCI-H2347, lung adenocarcinoma; 144 hours
Method: as §1

NCI-H2009 = settings: Homo sapiens; NCI-H2009, lung adenocarcinoma; 144 hours
Method: as §1

KMBC-2 = settings: KMBC-2, bladder carcinoma; 144 hours
Method: as §1

SK-LU-1 = settings: Homo sapiens; SK-LU-1, lung adenocarcinoma; 144 hours
Method: as §1

NCI-H1930 = settings: Homo sapiens; NCI-H1930, small cell lung carcinoma; 144 hours
Method: as §1

SF126 = settings: Homo sapiens, SF-126; SF126, glioblastoma multiforme; 144 hours
Method: as §1

A101D = settings: Homo sapiens, melanoma, 144 hours
Method: as §1

HT-1080 = settings: Homo sapiens; HT-1080, fibrosarcoma; 144 hours
Method: as §1

SCaBER = settings: Homo sapiens, bladder squamous cell carcinoma, 144 hours
Method: as §1

SNU-840 = settings: SNU-840, malignant ovarian Brenner tumor; 144 hours
Method: as §1

HCC1954 = settings: Homo sapiens; HCC1954, ductal breast carcinoma; 144 hours
Method: as §1

NCI-H1373 = settings: Homo sapiens; NCI-H1373, lung adenocarcinoma; 144 hours
Method: as §1

YD-10B = settings: tongue squamous cell carcinoma, 144 hours
Method: as §1

NCI-H441 = settings: Homo sapiens; NCI-H441, papillary adenocarcinoma of the lung; 144 hours
Method: as §1

SW900 = settings: Homo sapiens; SW900, squamous cell lung carcinoma; 144 hours
Method: as §1

NCI-H2444 = settings: Homo sapiens; NCI-H2444, non-small cell lung carcinoma; 144 hours
Method: as §1

NCI-H1963 = settings: Homo sapiens; NCI-H1963, small cell lung carcinoma; 144 hours
Method: as §1

T84 = settings: Homo sapiens; T84, colon adenocarcinoma; 144 hours
Method: as §1

SK-MES-1 = settings: Homo sapiens; SK-MES-1, squamous cell lung carcinoma; 144 hours
Method: as §1

COR-L105 = settings: Homo sapiens; COR-L105, lung adenocarcinoma; 144 hours
Method: as §1

NCI-H2066 = settings: NCI-H2066, squamous cell lung carcinoma; 144 hours
Method: as §1

Caki-1 = settings: Homo sapiens; Caki-1, clear cell renal cell carcinoma; 144 hours
Method: as §1

NUGC-3 = settings: Homo sapiens; NUGC-3, gastric adenocarcinoma; 144 hours
Method: as §1

AGS = settings: Homo sapiens, gastric adenocarcinoma, 144 hours
Method: as §1

NCI-H2087 = settings: Homo sapiens; NCI-H2087, lung adenocarcinoma; 144 hours
Method: as §1

`C[C@@H](COCCC(=O)N1CCN(c2ncc(C(F)(F)F)cn2)CC1)Nc1cn[nH]c(=O)c1C(F)(F)F` [Compound 1, 5-[[(2S)-1-(3-oxo-3-[4-[5-(trifluoromethyl)pyrimidin-2-yl]piperazin-1-yl]propoxy)propan-2-yl]amino]-4-(trifluoromethyl)-2,3-dihydropyridazin-3-one] was tested, and the GI50 (MDA-MB-468) was no less than 1 µM, the GI50 (Panc 03.27) was less than 0.1 µM and the GI50 (SK-MEL-2) was no less than 1 µM. It also gave a GI50 (SCC-25) of less than 0.1 µM, a GI50 (EBC-1) of less than 0.1 µM and a GI50 (TE-11) of no less than 1 µM. For the same compound, the GI50 (GCT) was less than 0.1 µM, the GI50 (NCI-H2291) was no less than 1 µM and the GI50 (ACC-MESO-1) was no less than 1 µM. It also gave a GI50 (TYK-nu) of less than 0.1 µM, a GI50 (NCI-H1944) of no less than 1 µM and a GI50 (NCI-H647) of less than 0.1 µM. It also gave a GI50 (NCI-H2347) of less than 0.1 µM, a GI50 (NCI-H2009) of no less than 1 µM and a GI50 (KMBC-2) of no less than 1 µM. For the same compound, the GI50 (SK-LU-1) was no less than 1 µM, the GI50 (NCI-H1930) was no less than 1 µM and the GI50 (SF126) was no less than 1 µM. For the same compound, the GI50 (A101D) was no less than 1 µM, the GI50 (HT-1080) was no less than 1 µM and the GI50 (SCaBER) was no less than 1 µM. The GI50 (SNU-840) was no less than 1 µM, the GI50 (HCC1954) was no less than 1 µM and the GI50 (NCI-H1373) was less than 0.1 µM. The GI50 (YD-10B) was no less than 1 µM, the GI50 (NCI-H441) was no less than 1 µM and the GI50 (SW900) was 0.1 to 1 µM. The GI50 (NCI-H2444) was no less than 1 µM, the GI50 (NCI-H1963) was no less than 1 µM and the GI50 (T84) was no less than 1 µM. For the same compound, the GI50 (SK-MES-1) was no less than 1 µM, the GI50 (COR-L105) was 0.1 to 1 µM and the GI50 (NCI-H2066) was no less than 1 µM. For the same compound, the GI50 (Caki-1) was less than 0.1 µM, the GI50 (NUGC-3) was no less than 1 µM and the GI50 (AGS) was no less than 1 µM. It also gave a GI50 (NCI-H2087) of no less than 1 µM.
